SMILES strings stand for the structures.

The target of this assay is T1, Na^+ /H^+ exchanger of rabbit erythrocytes (Oryctolagus cuniculus, UniProt P23791).
T1 construct: determine the Na^+ influx into the erythrocytes via Na^+ /H^+ exchange; endogenous in cells; host or cells: erythrocytes in whole blood of cholesterol-fed New Zealand White rabbits
T1 sequence (P23791 whole entry): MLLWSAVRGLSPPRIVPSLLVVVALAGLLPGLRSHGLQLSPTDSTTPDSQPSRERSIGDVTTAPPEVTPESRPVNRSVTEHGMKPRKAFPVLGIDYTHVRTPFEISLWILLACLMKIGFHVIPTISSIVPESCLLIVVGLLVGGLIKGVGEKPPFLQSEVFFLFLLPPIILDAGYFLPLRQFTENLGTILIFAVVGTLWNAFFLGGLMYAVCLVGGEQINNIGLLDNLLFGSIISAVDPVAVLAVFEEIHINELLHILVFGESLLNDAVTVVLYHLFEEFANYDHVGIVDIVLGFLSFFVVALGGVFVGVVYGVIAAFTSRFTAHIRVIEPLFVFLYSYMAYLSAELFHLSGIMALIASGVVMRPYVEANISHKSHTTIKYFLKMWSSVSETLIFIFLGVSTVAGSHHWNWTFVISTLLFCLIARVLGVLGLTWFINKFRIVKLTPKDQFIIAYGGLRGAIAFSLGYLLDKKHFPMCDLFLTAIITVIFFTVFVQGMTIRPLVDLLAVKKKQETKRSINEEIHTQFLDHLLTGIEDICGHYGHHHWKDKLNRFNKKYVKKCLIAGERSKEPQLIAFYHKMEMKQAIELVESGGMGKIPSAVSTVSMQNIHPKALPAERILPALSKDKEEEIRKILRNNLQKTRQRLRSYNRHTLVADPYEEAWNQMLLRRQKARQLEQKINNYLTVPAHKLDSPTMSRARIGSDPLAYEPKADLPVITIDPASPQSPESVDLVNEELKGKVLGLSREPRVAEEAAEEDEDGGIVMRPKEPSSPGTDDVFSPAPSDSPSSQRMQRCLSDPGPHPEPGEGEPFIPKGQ
The experiment in a line: Inhibition of the Na^+ /H^+ exchanger of rabbit erythrocytes (amiloride-sensitive sodium influx, flame photometry). The format is cell-based, rabbit (New Zealand White). As to conditions: pH 7.4, 37° C., rabbits on 2% cholesterol diet. The text has this: Inhibition of the Na^+ /H^+ exchanger of rabbit erythrocytes
New Zealand White rabbits (Ivanovas) were given a standard diet containing 2% cholesterol for six weeks in order to activate Na^+ /H^+ exchange and thus to be able to use flame photometry to determine the Na^+ influx into the erythrocytes via Na^+ /H^+ exchange. The blood was removed from the aural arteries and rendered incoagulable by the addition of 25 IU of potassium heparin. One part of each sample was used for the duplicate determination of the hematocrit by centrifugation. Aliquots of in each case 100 μl were employed for measuring the initial content of Na^+ in the erythrocytes.
In order to determine the amiloride-sensitive sodium influx, 100 μl of each blood sample were in each case incubated, at pH 7.4 and 37° C., in 5 ml of a hyperosmolar salt/sucrose medium (mmol/l: 140 NaCl, 3 KCl, 150 sucrose, 0.1 ouabain, 20 tris(hydroxymethyl)aminomethane). The erythrocytes were then washed three times with ice cold MgCl2 /ouabain solution (mmol/l: 112 MgCl2, 0.1 ouabain) and hemolyzed in 2.0 ml of distilled water. The intracellular content of sodium was determined by flame photometry.
The nett influx of Na^+ was calculated from the difference between the initial sodium values and the sodium content of the erythrocytes following incubation. The amiloride-inhibitable sodium Influx was given by the difference in the sodium content of the erythrocytes following incubation with and without 3×10^-4 mol/l amiloride. The same procedure was also used in the case of the compounds according to the invention.
Take `Cn1c(C(=O)N=C(N)N)ccc1C(F)(C(F)(F)F)C(F)(F)F` [Example 1, 5-Heptafluoroisopropyl-1-methylpyrrole-2-carboguanidide]: the IC50 amounted to 300 nM.

For the compound `Cn1c(C(=O)N=C(N)N)ccc1C(F)(F)C(F)(F)F` [Example 3, 5-Pentafluoroethyl-1-methylpyrrole-2-carboguanidide], the concentration for half-maximal inhibition (IC50) turned out to be 300 nM.

`Cc1ccc(C(=O)N=C(N)N)s1` [Example 7, 5Methylthiophene-2-carboguanidide] came in with an IC50 of 3000 nM.

As for `Cn1c(C(=O)N=C(N)N)ccc1C(F)(F)C(F)(F)C(F)(F)F` [Example 2, 5-Heptafluoro-n-propyl-1-methylpyrrole-2-carboguanidide], inhibition was half-maximal at 1000 nM (IC50). Compared with the last compound, the IC50 is about 3-fold lower.

With `CC(C)c1sc(C(=O)N=C(N)N)cc1S(C)(=O)=O` [Example 6, 5-Isopropyl-4-methylsulfonylthiophene-2-carboguanidide], the 50% inhibitory concentration (IC50) amounted to 500 nM.

`Cn1cccc1C(=O)N=C(N)N` [Example 5, 1-Methylpyrrole-2-carboguanidide] gave a 50% inhibitory concentration (IC50) of 5000 nM. This IC50 is about 10-fold higher than that of the compound before.

On to `NC(N)=NC(=O)c1cc(Br)c(Br)s1` [Example 8, 4,5-Dibromothiophene-2-carboguanidide], for which the IC50 was determined as 500 nM.

For the compound `Cn1c(C(=O)N=C(N)N)ccc1C(F)(F)F` [Example 4, 5-Trifluoromethyl-1-methylpyrrole-2-carboguanidide], the IC50 was found to be 200 nM. Against the preceding compound, the IC50 is about 2.5-fold lower.

The IC50 is the concentration needed to halve the response being measured.

Source of the values: patent US5698581A, “Substituted N-heteroaroylguanidines, a process for their preparation, their use as a medicament or diagnostic agent, and a medicament containing them” (Hoechst Aktiengesellschaft, priority 1994, dated 1997).
